In patent US6831075B2, “Heterocyclic substituted pyrazolones” (Cephalon, Inc., priority 1999, dated 2004):

Key:
Assay type in all cases: biochemical
baculoviral GST-MLK2KDLZ = biological target: T1, baculoviral GST-MLK2KDLZ (Homo sapiens, UniProt Q02779); test: Mixed Lineage Kinase-2 inhibition assay (Millipore Multiscreen plate, 32P); conditions: 1 uM compound, 100 μM ATP; for inhibition at 1 µM: read-out: MLK-2 Kinase % inhibition @ 1 uM
T1 construct: 3 μg/ml of baculoviral GST-MLK2KDLZ; GST (N); host or cells: baculovirus expression system
Protocol: Inhibition of Mixed Lineage Kinase-2 Activity
(§1) Assays were performed using the Millipore Multiscreen plate format as described for MLK1. Each 50-μl assay mixture contained 20 mM Hepes, pH 7, 1 mM EGTA, 10 mM MgCl2, 1 mM DTT, 25 mM β-glycerophosphate, 100 μM ATP, 0.25 μCi [γ-^32P]ATP, 0.1% BSA, 500 μg/ml myelin basic protein (UBI #13-104), 2% DMSO, various concentrations of test compound, and 3 μg/ml of baculoviral GST-MLK2KDLZ. Samples were incubated for 15 min. at 37° C. The reaction was stopped by adding ice cold 50% TCA and the proteins were allowed to precipitate for 30 min at 4° C. The plates were then washed with ice cold 25% TCA Supermix scintillation cocktail was added, and the plates were allowed to equilibrate for 1-2 hours prior to counting.

baculoviral GST-MLK3KD = biological target: T2, baculoviral GST-MLK3KD (Homo sapiens, UniProt Q16584); test: Mixed Lineage Kinase-3 inhibition assay (Millipore Multiscreen plate, 32P); conditions: 1 uM compound, 100 μM ATP; for inhibition at 1 µM: read-out: MLK-3 Kinase % inhibition @ 1 uM
T2 construct: 2 μg/ml of baculoviral GST-MLK3KD; GST (N); host or cells: baculovirus expression system
Protocol: Inhibition of Mixed Lineage Kinase-3 Activity
as §1, with “MLK1. Briefly, each” for “MLK1. Each”, “and 2” for “and 3”, “baculoviral GST-MLK3KD.” for “baculoviral GST-MLK2KDLZ.”, “15 min” for “15 min.”, “25% TCA.” for “25% TCA”

[1] = biological target: T3, baculovirus-expressed human trkA cytoplasmic domain (Homo sapiens, UniProt P04629); test: trkA tyrosine kinase inhibition assay (ELISA-based); conditions: 1 uM compound; 40 μM ATP
T3 construct: baculovirus-expressed human trkA cytoplasmic domain; host or cells: baculovirus expression system
Protocol: Inhibition of trkA Tyrosine Kinase Activity
Selected heterocyclic substituted pyrazolones were tested for their ability to inhibit the kinase activity of baculovirus-expressed human trkA cytoplasmic domain using an ELISA-based assay as previously described (Angeles et al., Anal. Biochem. 236: 49-55, 1996). Briefly, a 96-well microtiter plate was coated with substrate solution (recombinant human phospholipase C-γl/glutathione S-transferase fusion protein (Rotin et al., EMBO J., 11: 559-567, 1992). Inhibition studies were performed in 100 μl assay mixtures containing 50 mM Hepes, pH 7.4, 40 μM ATP, 10 mM MnCl2, 0.1% BSA, 2% DMSO, and various concentrations of inhibitor. The reaction was initiated by addition of trkA kinase and allowed to proceed for 15 minutes at 37° C. An antibody to phosphotyrosine (UBI) was then added, followed by a secondary enzyme-conjugated antibody, alkaline phosphatase-labelled goat anti-mouse IgG (Bio-Rad). The activity of the bound enzyme was measured via an amplified detection system (Gibco-BRL). Inhibition data were analyzed using the sigmoidal dose-response (variable slope) equation in GraphPad Prism.

baculoviral GST-MLK1KD = biological target: T4, baculoviral GST-MLK1KD (Homo sapiens, UniProt P80192); test: Mixed Lineage Kinase-1 inhibition assay (Millipore Multiscreen TCA in-plate, 32P); conditions: for MLK-1 Kinase % inhibition @ 1 uM: 1 uM compound, 60 μM ATP; for inhibition at 1 µM: read-out: MLK-1 Kinase % inhibition @ 1 uM
T4 construct: 1 μg/ml of baculoviral GST-MLK1KD; GST (N); host or cells: baculovirus expression system
Protocol: Inhibition of Mixed Lineage Kinase-1 Activity
The kinase activity of MLK1 was assessed using the Millipore Multiscreen TCA “in-plate” format as described for protein kinase C (Pitt & Lee, J. Biomol. Screening, 1: 47-51, 1996). Briefly, each 50-μl assay mixture contained 20 mM Hepes, pH 7.0, 1 mM EGTA, 10 mM MgCl2, 1 mM DTT, 25 mM β-glycerophosphate, 60 μM ATP, 0.25 μCi [γ-^32P]ATP, 0.1% BSA, 500 μg/ml myelin basic protein (UBI #13-104), 2% DMSO, 1 μM of test compound, and 1 μg/ml of baculoviral GST-MLK1KD. Samples were incubated for 15 min at 37° C. The reaction was stopped by adding ice cold 50% TCA and the protein were allowed to precipitate for 30 min at 4° C. The plates were then washed with ice cold 25% TCA. Supermix scintillation cocktail was added, and the plates were allowed to equilibrate for 1-2 hours prior to counting using the Wallac MicroBeta 1450 PLUS scintillation counter.

[2] = biological target: T5, recombinant human baculoviral VEGFR2 cyctoplasmic domain (Homo sapiens, UniProt P35968); test: VEGFR2 kinase inhibition assay (ELISA-based, time-resolved fluorescence); conditions: 1 uM compound; 30 μM ATP
T5 construct: recombinant human baculoviral VEGFR2 cyctoplasmic domain; host or cells: baculovirus expression system
Protocol: Inhibition of Vascular Endothelial Growth Factor Receptor-2 Kinase Activity
Assay were performed as described for trkA kinase below. The 96-well microtiter plate (FluoroNUNC Maxisorp) was coated with 40 μg/ml recombinant human phospholipase C-γ1/glutathione S-transferase fusion protein. Inhibition studies were performed in 100 μl assay mixtures containing 50 mM HEPES, pH 7.4, 30 μM ATP, 10 mM MnCl2, 0.1% BSA, 2% DMSO, and 1 μM of test compound. The reaction was initiated by adding prephosphorylated recombinant human baculoviral VEGFR2 cyctoplasmic domain. The reaction was allowed to proceed for 15 minutes at 37° C. The detection antibody, eurpium-labeled anti-phosphotyrosine antibody (Wallac #CR04-100), was added at 1:5000 dilution in block buffer (3% BSA in TBST).

T1 sequence (Q02779 98-440 limits assumed): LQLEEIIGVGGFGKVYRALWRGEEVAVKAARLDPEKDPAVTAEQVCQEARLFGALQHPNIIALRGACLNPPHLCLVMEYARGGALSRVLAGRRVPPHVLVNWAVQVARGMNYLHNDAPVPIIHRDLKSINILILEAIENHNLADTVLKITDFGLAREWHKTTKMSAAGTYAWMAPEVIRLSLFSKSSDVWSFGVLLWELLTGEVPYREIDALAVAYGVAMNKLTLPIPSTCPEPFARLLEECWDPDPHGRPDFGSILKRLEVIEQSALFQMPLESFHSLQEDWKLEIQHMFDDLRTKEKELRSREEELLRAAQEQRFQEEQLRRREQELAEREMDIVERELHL
T2 sequence (Q16584 117-379 limits assumed): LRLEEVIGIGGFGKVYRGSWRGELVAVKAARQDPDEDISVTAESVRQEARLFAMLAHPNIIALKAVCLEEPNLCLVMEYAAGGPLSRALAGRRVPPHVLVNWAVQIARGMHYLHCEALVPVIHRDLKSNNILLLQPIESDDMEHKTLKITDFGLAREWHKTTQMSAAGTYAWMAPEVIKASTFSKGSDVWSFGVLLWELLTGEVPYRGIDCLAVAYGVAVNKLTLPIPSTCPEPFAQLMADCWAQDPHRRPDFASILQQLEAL
T3 sequence (P04629 440-796 limits assumed): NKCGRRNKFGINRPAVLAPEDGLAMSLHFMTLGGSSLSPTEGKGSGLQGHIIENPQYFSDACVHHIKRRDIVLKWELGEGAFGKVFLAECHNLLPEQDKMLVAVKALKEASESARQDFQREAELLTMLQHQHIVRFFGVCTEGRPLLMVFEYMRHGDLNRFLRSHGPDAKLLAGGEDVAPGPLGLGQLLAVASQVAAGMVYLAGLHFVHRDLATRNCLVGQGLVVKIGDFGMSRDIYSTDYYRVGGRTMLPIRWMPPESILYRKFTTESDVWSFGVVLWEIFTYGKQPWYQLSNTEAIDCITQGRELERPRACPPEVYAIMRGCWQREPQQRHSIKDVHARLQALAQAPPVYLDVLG
T4 sequence (P80192 144-412 limits assumed): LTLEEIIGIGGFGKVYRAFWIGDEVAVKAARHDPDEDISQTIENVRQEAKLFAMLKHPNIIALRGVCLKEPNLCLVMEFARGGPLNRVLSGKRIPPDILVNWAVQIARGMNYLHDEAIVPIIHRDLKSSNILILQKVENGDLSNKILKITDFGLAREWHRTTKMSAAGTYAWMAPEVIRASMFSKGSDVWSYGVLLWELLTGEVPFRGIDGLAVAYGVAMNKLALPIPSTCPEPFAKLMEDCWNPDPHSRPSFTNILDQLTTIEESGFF
T5 sequence (P35968 786-1356 limits assumed): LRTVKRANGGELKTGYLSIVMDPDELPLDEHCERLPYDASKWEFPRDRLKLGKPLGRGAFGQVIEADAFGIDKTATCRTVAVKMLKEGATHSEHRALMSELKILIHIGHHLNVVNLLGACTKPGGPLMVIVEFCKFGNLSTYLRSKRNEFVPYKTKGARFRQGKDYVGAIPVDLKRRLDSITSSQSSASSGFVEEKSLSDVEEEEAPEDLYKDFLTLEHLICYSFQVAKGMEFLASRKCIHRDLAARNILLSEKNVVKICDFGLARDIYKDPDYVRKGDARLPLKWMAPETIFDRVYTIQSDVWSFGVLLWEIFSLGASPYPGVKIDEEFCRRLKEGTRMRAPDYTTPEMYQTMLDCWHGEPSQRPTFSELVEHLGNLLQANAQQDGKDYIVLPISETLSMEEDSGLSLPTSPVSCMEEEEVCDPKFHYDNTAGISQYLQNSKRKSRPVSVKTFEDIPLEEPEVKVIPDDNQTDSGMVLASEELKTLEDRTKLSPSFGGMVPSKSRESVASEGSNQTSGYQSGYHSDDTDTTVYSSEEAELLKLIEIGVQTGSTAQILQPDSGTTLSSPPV

Row | Compound | MLK-2 Kinase % inhibition @ 1 uM (baculoviral GST-MLK2KDLZ) | MLK-3 Kinase % inhibition @ 1 uM (baculoviral GST-MLK3KD) | trkA % inhibition @ 1 uM [1] | MLK-1 Kinase % inhibition @ 1 uM (baculoviral GST-MLK1KD) | VEGFR-2 kinase % inhibition @ 1 uM [2] | inhibition at 1 µM (baculoviral GST-MLK2KDLZ) | inhibition at 1 µM (baculoviral GST-MLK3KD) | inhibition at 1 µM [1] | inhibition at 1 µM (baculoviral GST-MLK1KD)
1 | Cc1cc(C)c(C=C2C(=O)NN=C2c2ccoc2)[nH]1 [Compound 1] | 7% | 28% | 24% | 12% | – | – | – | – | –
2 | Cc1cc(C)c(C=C2C(=O)NN=C2C2c3ccccc3Oc3ccccc32)[nH]1 [Compound 2] | −10% | −11% | 39% | −8% | 21% | – | – | – | –
3 | Cc1cc(C)c(C=C2C(=O)NN=C2c2ccncc2)[nH]1 [Compound 3] | −1% | 12% | 60% | 2% | 39% | – | – | – | –
4 | O=C1NN=C(c2ccoc2)C1=CC=C(c1ccccc1)c1ccccc1 [Compound 4] | −10% | −6% | 53% | 9% | 33% | – | – | – | –
5 | CCc1c(C=C2C(=O)NN=C2c2ccoc2)[nH]c(C(=O)OCc2ccccc2)c1C [Compound 5] | 9% | −9% | 2% | 14% | −5% | – | – | – | –
6 | Cc1c(I)[nH]c(C=C2C(=O)NN=C2c2ccoc2)c1I [Compound 6] | 6% | 3% | 31% | 25% | 9% | – | – | – | –
7 | CCOC(=O)CCc1c(C(=O)OCC)[nH]c(C=C2C(=O)NN=C2c2ccoc2)c1CC(=O)OCC [Compound 7] | −12% | 7% | 33% | 9% | −3% | – | – | – | –
8 | Cc1[nH]c(C=C2C(=O)NN=C2c2ccoc2)c(Br)c1Br [Compound 8] | 0% | 10% | 20% | 15% | 35% | – | – | – | –
9 | O=C1NN=C(c2ccoc2)C1=Cc1c[nH]c2ccccc12 [Compound 9] | 15% | 27% | 41% | 22% | 49% | – | – | – | –
10 | Cc1cc(C)c(C=C2C(=O)NN=C2c2cccnc2)[nH]1 [Compound 10] | −9% | 44% | 26% | 22% | 64% | – | – | – | –
11 | COc1ccc2[nH]cc(C=C3C(=O)NN=C3c3ccoc3)c2c1 [Compound 11] | 7% | 31% | 65% | 21% | 50% | – | – | – | –
12 | O=C1NN=C(c2ccoc2)C1=Cc1ccc[nH]1 [Compound 12] | −7% | 29% | 44% | 27% | 26% | – | – | – | –
13 | Cc1nc(C)c(C2=NNC(=O)C2=Cc2c[nH]c3ccccc23)s1 [Compound 13] | −17% | 17% | 45% | 10% | 25% | – | – | – | –
14 | Cc1cc(C)c(C=C2C(=O)NN=C2c2sc(C)nc2C)[nH]1 [Compound 14] | −18% | 14% | 35% | 8% | 13% | – | – | – | –
15 | O=C1NN=C(c2ccoc2)C1=Cc1ncc[nH]1 [Compound 15] | −12% | −17% | 15% | −3% | 11% | – | – | – | –
16 | COC(=O)c1ccc2[nH]cc(C=C3C(=O)NN=C3c3ccoc3)c2c1 [Compound 16] | 7% | 12% | 29% | 18% | 34% | – | – | – | –
17 | O=C1NN=C(c2ccoc2)C1=Cc1c[nH]c2ccc(Cl)cc12 [Compound 17] | −8% | 19% | 52% | 6% | 48% | – | – | – | –
18 | O=C1NN=C(c2ccoc2)C1=Cc1c[nH]c2cccc(OCc3ccccc3)c12 [Compound 18] | −2% | 47% | 70% | 14% | 12% | – | – | – | –
19 | O=C1NN=C(c2ccoc2)C1=Cc1c[nH]c2ccc(F)cc12 [Compound 19] | −5% | 11% | 45% | 4% | 44% | – | – | – | –
20 | Cc1cc(C)c(C=C2C(=O)NN=C2c2nccs2)[nH]1 [Compound 26, 4-[(3,5-dimethylpyrrol-2-yl)methylene]-3-(1,3-thiazol-2-yl)-2 pyrazolin-5-one] | – | – | – | – | – | -7% | 57% | 42% | 10%
21 | Cn1cc(C=C2C(=O)NN=C2c2nccs2)c2ccccc21 [Compound 60] | 9% | 58% | 71% | 37% | – | – | – | – | –
22 | Cc1cc(C)c(C=C2C(=O)NN=C2c2cnccn2)[nH]1 [Compound 74, 4-[(3,5-dimethylpyrrol-2-yl)methylene]-3-pyrazin-2-yl-2-pyrazolin-5-one] | – | – | – | – | – | 17% | 72% | 53% | 44%
